pIC50: −log10 of the molar value.
Columns and labels:
SiHa = test: Antiproliferative activity against human SiHa cells assessed as cell growth inhibition incubated for 48 hrs by sulforhodamine B assay; type: functional
PANC-1 = test: Antiproliferative activity against human PANC-1 cells assessed as cell growth inhibition incubated for 48 hrs by sulforhodamine B assay; type: functional
SMMC-7721 = test: Antiproliferative activity against human SMMC-7721 cells assessed as reduction in cell viability incubated for 24 hrs by MTT assay; type: functional, cell-based; settings: SMMC-7721, 24 h
HL-60 [1] = test: Cytotoxicity against human HL-60 cells assessed as reduction in cell viability by MTT assay; type: functional, cell-based
[2] = Cytotoxicity against Chinese hamster CHO cells assessed as reduction in cell viability by MTT assay; type: toxicity, cell-based, Cricetulus griseus
L1210 [3] = test: Cytotoxicity against mouse L1210 cells assessed as reduction in cell viability incubated for 48 hrs by MTT assay; type: functional, cell-based; settings: L1210, 48 h
HL-60 [4] = test: Cytotoxicity against human HL-60 cells assessed as reduction in cell viability incubated for 48 hrs by MTT assay; type: functional, cell-based; settings: HL-60, 48 h
[5] = Cytotoxicity against Chinese hamster CHO cells assessed as reduction in cell viability incubated for 48 hrs by MTT assay; type: toxicity, cell-based, Cricetulus griseus
L1210 [6] = test: Antiproliferative activity against mouse L1210 cells assessed as reduction in cell viability by MTT assay; type: functional, cell-based
L1210 [7] = test: Anticancer activity against mouse L1210 cells assessed as reduction in cell viability by MTT assay; type: functional, cell-based
L1210 [8] = test: Cytotoxicity against mouse L1210 cells assessed as reduction in cell viability by MTT assay; type: functional, cell-based
Hep 3B2 = test: Antiproliferative activity against human Hep3B cells assessed as reduction in cell viability; type: functional, cell-based
A549 = test: Antitumor activity against human A549 cells assessed as reduction in cell viability incubated for 4 hrs by MTT assay; type: functional, cell-based; settings: A549, 4 h
CT26 = test: Antitumor activity against mouse CT26 cells assessed as reduction in cell viability incubated for 4 hrs by MTT assay; type: functional, cell-based; settings: CT26, 4 h
A-431 = test: Anticancer activity against human A-431 cells assessed as reduction in cell viability incubated for 72 hrs by MTT assay; type: functional, cell-based; settings: A-431, 72 h
EJ = test: Anticancer activity against human EJ cells assessed as reduction in cell viability incubated for 72 hrs by MTT assay; type: functional, cell-based
SK-MEL3 = test: Anticancer activity against human SK-MEL3 cells assessed as reduction in cell viability incubated for 72 hrs by MTT assay; type: functional, cell-based; settings: SK-MEL3, 72 h
KB = test: Anticancer activity against human KB cells assessed as reduction in cell viability incubated for 72 hrs by MTT assay; type: functional, cell-based
SW480 = test: Anticancer activity against human SW480 cells assessed as reduction in cell viability incubated for 72 hrs by MTT assay; type: functional, cell-based; settings: SW480, 72 h
MCF7 = test: Anticancer activity against human MCF7 cells assessed as reduction in cell viability incubated for 72 hrs by MTT assay; type: functional, cell-based; settings: MCF7, 72 h
[9] = test system: Panel NCI-60 (60 carcinoma cell lines); test: Anticancer activity against human Panel NCI-60 (60 carcinoma cell lines) cells assessed as cell growth inhibition incubated for 48 hrs by sulforhodamine B assay; type: functional

CCn1cc(C(=O)O)c(=O)c2cnc(N3CCN(C(=O)CCSc4nnnn4Cc4ccccc4)CC3)nc21
GI50 (SiHa): 0.06 µM
GI50 (PANC-1): 0.06 µM

COc1ccccc1-c1nnc(CSc2nnc(-c3cn4c5c(c(N6CCN(C)CC6)c(F)cc5c3=O)OC[C@@H]4C)o2)o1
pIC50 (SMMC-7721): 5.89
pIC50 (HL-60 [1]): 5.66
pIC50 [2]: 6.00

CC1COc2c(N3CCN(C)CC3)c(F)cc3c(=O)c(-c4nn(CN(C)C)c(=S)n4/N=C/c4ccccc4O)cn1c23 (centres undefined)
pIC50 (L1210 [3]): 6.85
pIC50 (HL-60 [4]): 6.85
IC50 at 48 h [5]: 0.14 µM

CCN1CCN(c2cc3c(cc2F)c(=O)c(-c2nnc4sc(-c5cn(C6CC6)c6cc(N7CCNCC7)c(F)cc6c5=O)nn24)cn3C2CC2)CC1
pIC50 (L1210 [6]): 6.70

COc1cc(/C=N/n2c(-c3cn4c5c(c(N6CCN(C)CC6)c(F)cc5c3=O)OCC4C)n[nH]c2=S)ccc1O (centres undefined)
pIC50 (L1210 [3]): 4.98
pIC50 (HL-60 [4]): 4.98
IC50 at 48 h [5]: 10.5 µM

CCn1cc(C(=O)O)c(=O)c2cnc(N3CCN(C(=O)CCSc4nnnn4-c4ccc(F)c(F)c4F)CC3)nc21
GI50 (SiHa): 0.06 µM
GI50 (PANC-1): 0.06 µM

O=C(O)c1cn(C2CC2)c2cc(N3CCN(C(=O)CCSc4nnnn4-c4ccc(Br)cc4)CC3)c(F)cc2c1=O
GI50 (SiHa): 0.06 µM
GI50 (PANC-1): 0.06 µM

O=c1c(-c2n[nH]c3cc(-c4ccc(O)c(O)c4)nn23)cn(C2CC2)c2cc(N3CCNCC3)c(F)cc12
pIC50 (L1210 [7]): 6.85

COc1ccc(/C=N/NC(=O)c2cn(C3CC3)c3cc(N4CCNCC4)c(F)cc3c2=O)cc1O
pIC50 (HL-60 [1]): 4.60
pIC50 [2]: 4.60
pIC50 (L1210 [8]): 4.60

O=C(N/N=C/c1ccc([N+](=O)[O-])cc1)c1cn(C2CC2)c2cc(N3CCNCC3)c(F)cc2c1=O
pIC50 (HL-60 [1]): 4.60
pIC50 [2]: 4.60
pIC50 (L1210 [8]): 4.60

CCn1cc(-c2nn(CNc3ccc(Cl)cc3)c(=S)o2)c(=O)c2cc(F)c(N3CCN(C)CC3)cc21
pIC50 (Hep 3B2): 4.34

CCn1cc(C(=O)O)c(=O)c2cc(F)c(N3CCN(CP(=S)(c4ccccc4)c4ccccc4)CC3)cc21
pIC50 (A549): 3.82
pIC50 (CT26): 3.82

O=C(O)c1cn(C2CC2)c2cc(N3CCNCC3)c(F)cc2c1=O [CIPROFLOXACIN]
pIC50 (A-431): < 3.89
pIC50 (EJ): < 3.89
pIC50 (HL-60 [1]): < 3.82
pIC50 (SK-MEL3): < 3.89
pIC50 [2]: < 3.82
pIC50 (KB): < 3.89
pIC50 (L1210 [6]): < 3.82
pIC50 (A549): 3.48
pIC50 (SW480): < 3.89
pIC50 (L1210 [8]): < 3.82
pIC50 (MCF7): < 3.89
pIC50 (CT26): 3.48

CCn1cc(C(=O)O)c(=O)c2cc(F)c(N3CCN(S(=O)(=O)c4ccc(Cl)cc4)CC3)cc21
GI50 [9]: 2.63 µM

COc1ccc(/C=N/NC(=O)c2cn(C3CC3)c3cc(N4CCNCC4)c(F)cc3c2=O)cc1
pIC50 (HL-60 [1]): 4.60
pIC50 [2]: 4.60
pIC50 (L1210 [8]): 4.60

O=C(N/N=C/c1ccccc1)c1cn(C2CC2)c2cc(N3CCNCC3)c(F)cc2c1=O
pIC50 (HL-60 [1]): 4.60
pIC50 [2]: 4.60
pIC50 (L1210 [8]): 4.60

CCn1cc(C(=O)O)c(=O)c2cc(F)c(N3CCN(CP(=[Se])(c4ccccc4)c4ccccc4)CC3)cc21
pIC50 (A549): 3.82
pIC50 (CT26): 3.82

COc1ccc(/C=N/n2c(-c3cn4c5c(c(N6CCN(C)CC6)c(F)cc5c3=O)OCC4C)nn(CN(C)C)c2=S)cc1O (centres undefined)
pIC50 (L1210 [3]): 6.85
pIC50 (HL-60 [4]): 6.85
IC50 at 48 h [5]: 0.14 µM

CCn1cc(C(=O)O)c(=O)c2cc(F)c(N3CCNCC3)cc21 [NORFLOXACIN]
pIC50 (A-431): < 3.89
pIC50 (EJ): < 3.89
pIC50 (SK-MEL3): < 3.89
pIC50 (KB): < 3.89
pIC50 (L1210 [6]): < 3.82
pIC50 (A549): 3.48
pIC50 (SW480): < 3.89
pIC50 (MCF7): < 3.89
pIC50 (CT26): 3.48

CCn1cc(C(=O)O)c(=O)c2cc(F)c(N3CCN(CC(=O)c4ccccc4)CC3)cc21
GI50 [9]: 22 µM

CCN1CCN(c2cc3c(cc2F)c(=O)c(-c2nnc4sc(-c5cn(C6CC6)c6cc(N7CCN(C)CC7)c(F)cc6c5=O)nn24)cn3C2CC2)CC1
pIC50 (L1210 [6]): 5.60

O=C(O)c1cn(C2CC2)c2cc(N3CCN(CP(=S)(c4ccccc4)c4ccccc4)CC3)c(F)cc2c1=O
pIC50 (A549): 3.82
pIC50 (CT26): 3.82

CCn1cc(C(=O)O)c(=O)c2cc(F)c(N3CCN(CC(=O)c4ccc(OC)cc4)CC3)c(F)c21
GI50 [9]: 22 µM

CCn1cc(C(=O)O)c(=O)c2cnc(N3CCN(C(=O)CCSc4nnnn4-c4ccc(Br)cc4)CC3)nc21
GI50 (SiHa): 0.06 µM
GI50 (PANC-1): 0.06 µM

CCn1cc(-c2nn(CN(C)C)c(=S)o2)c(=O)c2cc(F)c(N3CCN(C)CC3)cc21
pIC50 (Hep 3B2): 5.08

COc1ccc(C(=O)CN2CCN(c3cc4c(cc3F)c(=O)c(C(=O)O)cn4-c3ccc(N)cc3F)CC2)cc1
GI50 [9]: 22 µM

O=C(O)c1cn(C2CC2)c2cc(N3CCN(C(=O)CCSc4nnnn4Cc4ccccc4)CC3)c(F)cc2c1=O
GI50 (SiHa): 0.06 µM
GI50 (PANC-1): 0.06 µM

O=c1[nH]cc(F)c(=O)[nH]1 [FLUOROURACIL]
GI50 [9]: 22.6 µM

C[C@H]1COc2c(N3CCN(C)CC3)c(F)cc3c(=O)c(-c4nnc(S)o4)cn1c23
pIC50 (SMMC-7721): < 4.30
pIC50 (HL-60 [1]): < 4.30
pIC50 [2]: < 4.30

O=C(O)c1cn(C2CC2)c2cc(N3CCN(CP(=O)(c4ccccc4)c4ccccc4)CC3)c(F)cc2c1=O
pIC50 (A549): 3.82
pIC50 (CT26): 3.82

COc1cc(/C=N/n2c(-c3cn4c5c(c(N6CCN(C)CC6)c(F)cc5c3=O)OCC4C)nn(CN(C)C)c2=S)ccc1O (centres undefined)
pIC50 (L1210 [3]): 6.85
pIC50 (HL-60 [4]): 6.85
IC50 at 48 h [5]: 0.14 µM

O=C(O)c1cn(C2CC2)c2cc(N3CCN(CP(c4ccccc4)c4ccccc4)CC3)c(F)cc2c1=O
pIC50 (A549): 3.82
pIC50 (CT26): 3.82

CCn1cc(C(=O)O)c(=O)c2cc(F)c(N3CCN(CP(=O)(c4ccccc4)c4ccccc4)CC3)cc21
pIC50 (A549): 3.82
pIC50 (CT26): 3.82

CCn1cc(C(=O)O)c(=O)c2cc(F)c(N3CCN(CP(c4ccccc4)c4ccccc4)CC3)cc21
pIC50 (A549): 3.82
pIC50 (CT26): 3.82

O=C(O)c1cn(C2CC2)c2cc(N3CCN(CP(=[Se])(c4ccccc4)c4ccccc4)CC3)c(F)cc2c1=O
pIC50 (A549): 3.82
pIC50 (CT26): 3.82

COc1cc(/C=N/NC(=O)c2cn(C3CC3)c3cc(N4CCNCC4)c(F)cc3c2=O)cc(OC)c1OC
pIC50 (HL-60 [1]): 4.60
pIC50 [2]: 4.60
pIC50 (L1210 [8]): 4.60

Cc1cc(C)c(S(=O)(=O)N2CCN(c3cc4c(cc3F)c(=O)c(C(=O)O)cn4C3CC3)CC2)c(C)c1
GI50 [9]: 2.63 µM

O=C(N/N=C/c1ccccc1O)c1cn(C2CC2)c2cc(N3CCNCC3)c(F)cc2c1=O
pIC50 (HL-60 [1]): 4.60
pIC50 [2]: 4.60
pIC50 (L1210 [8]): 4.60

CCN1CCN(c2cc3c(cc2F)c(=O)c(-c2nnc(S)n2N)cn3C2CC2)CC1
pIC50 (L1210 [6]): ≥ 4.30

O=C(N/N=C/c1ccc(F)cc1)c1cn(C2CC2)c2cc(N3CCNCC3)c(F)cc2c1=O
pIC50 (HL-60 [1]): 4.60
pIC50 [2]: 4.60
pIC50 (L1210 [8]): 4.60

CC1COc2c(N3CCN(C)CC3)c(F)cc3c(=O)c(-c4n[nH]c(=S)n4/N=C/c4ccccc4O)cn1c23 (centres undefined)
pIC50 (L1210 [3]): 4.98
pIC50 (HL-60 [4]): 4.98
IC50 at 48 h [5]: 10.5 µM

COc1ccc(/C=N/n2c(-c3cn4c5c(c(N6CCN(C)CC6)c(F)cc5c3=O)OCC4C)n[nH]c2=S)cc1O (centres undefined)
pIC50 (L1210 [3]): 4.98
pIC50 (HL-60 [4]): 4.98
IC50 at 48 h [5]: 10.5 µM

COc1ccccc1-c1nnc(CSc2nnc(-c3cn4c5c(c(N6CC[N+](C)(C)CC6)c(F)cc5c3=O)OC[C@@H]4C)o2)o1
pIC50 (SMMC-7721): 6.09
pIC50 (HL-60 [1]): 5.80
pIC50 [2]: 6.39

CCN1CCN(c2cc3c(cc2F)c(=O)c(-c2nn4c(-c5cn(C6CC6)c6cc(N7CCN(CC)CC7)c(F)cc6c5=O)nnc4s2)cn3C2CC2)CC1
pIC50 (L1210 [6]): 5.92

CCn1cc(C(=O)O)c(=O)c2cc(F)c(N3CCN(S(=O)(=O)c4ccc(Cl)cc4Cl)CC3)cc21
GI50 [9]: 2.63 µM

From ChEMBL document CHEMBL5233217, “Modification of 7-piperazinylquinolone antibacterials to promising anticancer lead compounds: Synthesis and in vitro studies” (Eur J Med Chem, 2020)
